In patent US11696913B2, “Prolonged ectoparasite-controlling agent for animal” (MITSUI CHEMICALS AGRO, INC., priority 2017, dated 2023):

Key:
[1] = system: Ctenocephalides felis; test: Ctenocephalides felis in-vitro feeding test with fleas (CTECFE oral); conditions: 48 hours, read-out: insecticidal feeding activity; for pest or weed control at 4 ppm: dose 4 ppm in citrated cattle blood; for pest or weed control at 0.032 ppm: dose 0.032 ppm in citrated cattle blood; for pest or weed control at 0.16 ppm: dose 0.16 ppm in citrated cattle blood; for pest or weed control at 0.8 ppm: dose 0.8 ppm in citrated cattle blood
Method in brief: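 About 20 unfed adult cat fleas fed through parafilm on citrated cattle blood containing test substance (DMSO solution diluted in blood), held at about 37° C. Kill rate scored after 48 hours, 100% meaning all fleas dead.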

[2] = system: Plutella xylostella; test: Insecticidal testing against diamondback moth; assay type: in vivo; conditions: foliar, 144 h, concentration 100 ppm, cabbage leaf dip, third-stage larvae, after 6 days, read-out: pesticidal rate
Text: Insecticidal Testing Against Diamondback Moth (Plutella xylostella)

[3] = system: Spodoptera litura; test: Insecticidal testing against common cutworm; assay type: in vivo; conditions: foliar, 144 h, concentration 100 ppm, cabbage leaf dip, second-stage larvae, after 6 days, read-out: pesticidal rate
Text: Insecticidal Testing Against Common Cutworm (Spodoptera litura)

[4] = system: Rhipicephalus (Boophilus) microplus; test: In vitro injection test with Rhipicephalus (Boophilus) microplus (BOOPMI Inj); conditions: 168 h, laid fertile eggs after 7 days, read-out: acaricidal activity; for pest or weed control at 0.00016 mg: dose 0.16 μg/animal injected; for pest or weed control at 0.0008 mg: dose 0.8 μg/animal injected
Method in brief: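 Test substance in DMSO; 1 μl injected into abdomen of each of 5 engorged adult female ticks, then held at 28° C., 85% rel. hum. Activity scored after 7 days from laying of fertile eggs: 100% = no eggs or all infertile, 0% = all eggs fertile.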

[5] = system: Ctenocephalides felis; test: In vitro contact test with fleas; conditions: read-out: insecticidal activity; for pest or weed control at 0.04 µg/cm2, 0.04 µg/cm2: dose 0.04 μg/cm^2, dead or moribund fleas after 48 h; for pest or weed control at 0.2 µg/cm2, 0.2 µg/cm2: dose 0.2 μg/cm^2, dead or moribund fleas after 48 h; for pest or weed control at 1 µg/cm2, 1 µg/cm2: dose 1 μg/cm^2, dead or moribund fleas after 48 h
Method in brief: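 Adult male and female cat fleas (5-10 per tube) placed in glass tubes coated with compound from acetone solution (900 ppm gives 5 μg/cm^2), kept at room temperature and ambient humidity. After 48 h, motionless or uncoordinated fleas scored dead or moribund; activity expressed as % dead or moribund.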

[6] = system: Laodelphax striatellus; test: Insecticidal testing against small brown planthopper; assay type: in vivo; conditions: 144 h, concentration 100 ppm, sprayed rice seedlings, after 6 days, read-out: pesticidal rate
Procedure: Insecticidal Testing Against Small Brown Planthopper (Laodelphax striatellus)
An additional test was carried out with 10 small brown planthoppers by preparing an acetone solution of the testing compound diluted to a predetermined concentration, spraying the solution onto rice seedlings and air drying the rice seedlings. The medicament was all used as received. The rice seedlings were placed in a constant-temperature room at 25° C., and the survival rate was investigated after 6 days. The test was carried out by means of one group of 10 pests.

| SMILES | pest or weed control at 4 ppm [1] [%] | pest or weed control at 100 ppm [2] [%] | pest or weed control at 100 ppm [3] [%] | pest or weed control at 0.0064 ppm ([1]; dose 0.0064 ppm in citrated cattle blood) [%] | pest or weed control at 0.032 ppm [1] [%] | pest or weed control at 0.16 ppm [1] [%] | pest or weed control at 0.8 ppm [1] [%] | pest or weed control at 0.00016 mg [4] [%] | pest or weed control at 0.0008 mg [4] [%] | pest or weed control at 0.04 µg/cm2, 0.04 µg/cm2 [5] [%] | pest or weed control at 0.2 µg/cm2, 0.2 µg/cm2 [5] [%] | pest or weed control at 1 µg/cm2, 1 µg/cm2 [5] [%] | pest or weed control at 32 ng ([4]; dose 0.032 μg/animal injected) [%] | pest or weed control at 100 ppm [6] [%] |
| --- | --- | --- | --- | --- | --- | --- | --- | --- | --- | --- | --- | --- | --- | --- |
| COc1ccc(C(=O)N(C)c2cccc(C(=O)Nc3c(I)cc(C(F)(C(F)(F)F)C(F)(F)F)cc3C(F)(F)F)c2F)cc1OC [Compound 50] | 95 | ≥ 70 | ≥ 70 | – | – | – | – | – | – | – | – | – | – | – |
| CN(C(=O)c1ccc(C(F)(F)F)nc1C(F)(F)F)c1cccc(C(=O)Nc2c(I)cc(C(F)(C(F)(F)F)C(F)(F)F)cc2C(F)(F)F)c1F [Compound 111] | 95 | ≥ 70 | ≥ 70 | 95 | 95 | 95 | 95 | 100 | 100 | 95 | 95 | 95 | – | – |
| CN(C(=O)c1ccc2c(c1)OCO2)c1cccc(C(=O)Nc2c(I)cc(C(F)(C(F)(F)F)C(F)(F)F)cc2C(F)(F)F)c1F [Compound 55] | 95 | ≥ 70 | ≥ 70 | – | – | – | – | – | – | – | 95 | 95 | – | – |
| CN(C(=O)c1cnc(C(F)(F)F)nc1)c1cccc(C(=O)Nc2c(I)cc(C(F)(C(F)(F)F)C(F)(F)F)cc2C(F)(F)F)c1F [Compound 113] | 95 | ≥ 70 | ≥ 70 | – | 95 | 95 | 95 | 100 | 100 | – | – | – | 100 | ≥ 70 |
| O=C(Nc1cccc(C(=O)Nc2c(I)cc(C(F)(C(F)(F)F)C(F)(F)F)cc2C(F)(F)F)c1F)c1cnc(C(F)(F)F)nc1 [Compound 114] | 95 | ≥ 70 | ≥ 70 | – | – | 95 | 95 | – | 100 | – | – | – | – | – |
| CN(C(=O)c1ccc(F)cc1)c1cc(C(=O)Nc2c(Cl)cc(C(F)(C(F)(F)F)C(F)(F)F)cc2C(F)(F)F)ccc1F [Compound 83] | 95 | ≥ 70 | ≥ 70 | – | 95 | 95 | 95 | 100 | 100 | 95 | 95 | 95 | – | ≥ 70 |
| CN(C(=O)c1ccc(C(N)=O)cc1)c1cccc(C(=O)Nc2c(I)cc(C(F)(C(F)(F)F)C(F)(F)F)cc2C(F)(F)F)c1F [Compound 48] | 95 | ≥ 70 | ≥ 70 | – | – | 95 | 95 | 100 | 100 | – | – | 95 | – | – |
